Test results as given in article PMC10916382, “Repurposing screen identifies novel candidates for broad-spectrum coronavirus antivirals and druggable host targets” (Antimicrobial Agents and Chemotherapy, 2024).
Counter-ions that a name gives are not always drawn. Like-named read-outs stand apart in the source and are kept apart here. Where a SMILES comes first, the peptide text is derived from it. The star is where a group is joined. Cbz = O=C(OCc1ccccc1)*; CHN2 = [N-]=[N+]=C*

Legend:
HCoV-229E = test: microbe, parasite or virus in culture; format: cell-based, Homo sapiens sapiens
[1] = HCoV 229E infection, dose series, max. dose 5 µM, read-out: IC50
[2] = Huh-7.5 cells, dose series, maximum tested dose 5 µM

Structure (SMILES)	IC50 (HCoV-229E; [1])	CC50 (µM) (Huh-7.5/F-Luc cells; [2])	% cell viability at max. dose [5 µM] (Huh-7.5/F-Luc cells; at max. dose 5 µM)	Anti-SARS-CoV-2 screening on Calu-3 cells: viability [% of control] (SARS-CoV-2; Calu-3 cells)	Anti-SARS-CoV-2 screening on Calu-3 cells: intracellular SARS-CoV-2 infection measured via immunofluorescence imaging [% of control] (SARS-CoV-2; Calu-3 cells)	further results
C=C1C[C@@H]2CC[C@@]34C[C@H]5O[C@H]6[C@@H](O3)[C@H]3O[C@H](CC[C@@H]3O[C@H]6[C@H]5O4)CC(=O)C[C@@H]3[C@@H](OC)[C@@H](C[C@H](O)CN)O[C@H]3C[C@H]3O[C@@H](CC[C@@H]1O2)C[C@@H](C)C3=C [Eribulin (mesylate)]	0.05 µM	greater than maximum tested dose	97.37%	41.43 % of control	29.49 % of control	–
CC[C@H](NC(=O)[C@H](CS(=O)(=O)CC1CC1)N[C@@H](c1ccc(F)cc1)C(F)(F)F)C(=O)C(=O)NC1CC1 [VBY-825, reference compound]	0.21 µM	greater than maximum tested dose	147.45%	100.68 % of control	101.42 % of control	antiviral activity against HCoV-229E (HCoV-229E; Huh-7.5/F-Luc cells): antiviral activity
COc1cc2c(cc1N1C[C@@H](C)N[C@@H](C)C1)N(C(=O)c1ccc(-c3ccc(-c4noc(C)n4)cc3C)cc1)CC2 [SB-616234-A]	0.57 µM	greater than maximum tested dose	143.19%	119.80 % of control	117.99 % of control	–
Oc1cccc[c]1[Hg][Cl] [RFM-006-841-7]	–	–	–	123.69 % of control	99.62 % of control	IC50 (HCoV-229E; HCoV-229E/R-Luc on Huh-7.5/F-Luc cells, dose series, max. dose 5 µM, read-out: IC50 (µM), HCoV 229E): 1.35 µM; % cell viability at max. dose [5 µM] (Huh-7.5/F-Luc cells; Huh-7.5/F-Luc cells, 5 µM): 91.70%; CC50 (µM) (Huh-7.5/F-Luc cells; Huh-7.5/F-Luc cells, maximum tested dose 5 µM): greater than maximum tested dose
Oc1ccc(CCN2CCC(Nc3nc4ccccc4n3Cc3ccc(F)cc3)CC2)cc1 [DESMETHYLASTEMIZOLE]	–	greater than maximum tested dose	160.37%	121.52 % of control	109.56 % of control	IC50 (HCoV-229E; read-out: IC50): 1.07 µM
OCCNCCOc1ccc(/C(=C(\c2ccccc2)C(F)(F)F)c2ccccc2)cc1 [PANOMIFENE]	–	greater than maximum tested dose	141.70%	98.59 % of control	95.32 % of control	IC50 (HCoV-229E; read-out: IC50): 0.89 µM
Cc1cccc(/C=N/Nc2cc(N3CCOCC3)nc(OCCc3ccccn3)n2)c1 [Target 16/Apilimod mesilate]	0.2 µM	greater than maximum tested dose	124.74%	101.93 % of control	135.01 % of control	–
CC1(C)CC[C@]2(NC(=O)C(C)(F)F)CC[C@]3(C)[C@H](C(=O)C=C4[C@@]5(C)C=C(C#N)C(=O)C(C)(C)[C@@H]5CC[C@]43C)[C@@H]2C1 [RTA-63415 / Omaveloxolone]	0.08 µM	–	–	–	99.52 % of control	% cell viability at max. dose [5 µM] (Huh-7.5/F-Luc cells): 77.27%; CC50 (µM) (Huh-7.5/F-Luc cells): greater than maximum tested dose; Anti-SARS-CoV-2 screening on Calu-3 cells: viability [% of control] (SARS-CoV-2): 122.72 % of control
COC(=O)C1=C(C)NC(C)=C(C(=O)OCCCCNC[C@H](O)COc2ccccc2)C1c1cccc([N+](=O)[O-])c1 (some centres unmarked) [YM 430]	0.82 µM	greater than maximum tested dose	137.51%	101.27 % of control	99.21 % of control	–
CN(C)CCC(Sc1cccc2ccccc12)c1cccs1 (centres unmarked) [VUFB 18271]	0.93 µM	greater than maximum tested dose	117.62%	105.83 % of control	114.60 % of control	–
CCN(CC)CCCN1c2ccccc2Sc2ccc(Cl)cc21.Cl [Chlorproethazine HCl]	0.83 µM	greater than maximum tested dose	142.02%	91.47 % of control	133.96 % of control	–
O=S(=O)(Nc1ccc(CCNC[C@H](O)c2cccnc2)cc1)c1ccc(-c2nc(-c3ccc(C(F)(F)F)cc3)cs2)cc1 [L 796568]	0.77 µM	greater than maximum tested dose	149.63%	84.86 % of control	111.47 % of control	–
CN1C2CCC1CC(OC(c1ccccc1)c1ccc(Cl)cc1)C2.Cl (centres unmarked)	–	greater than maximum tested dose	144.12%	110.96 % of control	110.06 % of control	IC50 (HCoV-229E; read-out: IC50): 0.69 µM
CC(C)CC(NC(=O)OCc1ccccc1)C(=O)NC(C(=O)NCC(=O)C=[N+]=[N-])C(C)C (stereo not drawn) [Z LVG CHN2] (Cbz-Leu-Val-Gly-CHN2; configuration not given here)	–	greater than maximum tested dose	182.31%	97.82 % of control	105.09 % of control	IC50 (HCoV-229E; read-out: IC50): 0.07 µM
Cc1c(-c2ccccc2)oc2ccc(OCCCCCCN3CCC(O)CC3)cc2c1=O [NPC 16377]	1.07 µM	greater than maximum tested dose	107.69%	101.43 % of control	119.40 % of control	–
C1=C(c2ccc(CN3CCCCC3)cc2)N2CCN=C2c2ccccc21 [SDZ-62-434]	0.76 µM	greater than maximum tested dose	157.85%	104.96 % of control	96.11 % of control	–
Oc1ccc2c(c1)CC[C@H](c1ccccc1)[C@H]2c1ccc(OCCN2CCCC2)cc1 [Lasofoxifene tartrate]	0.54 µM	greater than maximum tested dose	142.22%	103.26 % of control	99.99 % of control	–
CN(C)C(C)(C)CSc1nc2ccccc2cc1-c1ccccc1 [ICI-170809]	0.52 µM	greater than maximum tested dose	138.76%	98.23 % of control	103.59 % of control	–
Cc1ccc(Sc2ccccc2C2CCNCC2)cc1 [LU-AA24530]	0.68 µM	greater than maximum tested dose	150.91%	106.74 % of control	100.77 % of control	–
Nc1ncccc1-c1nc2ccc(-c3ccccc3)nc2n1-c1ccc(C2(N)CCC2)cc1 [ARQ-092 (Miransertib mesylate)]	–	greater than maximum tested dose	98.72%	27.64 % of control	126.86 % of control	–
COc1cc(C(C)=O)ccc1OCCCN1CCC(C(O)(c2ccc(F)cc2)c2ccc(F)cc2)CC1 [AHR-5333]	1 µM	greater than maximum tested dose	162.61%	103.33 % of control	98.57 % of control	–
c1ccc(CCCC(Oc2ccccc2OCc2ccccc2)C2=NCCN2)cc1 (centres unmarked) [MDL 102588]	0.52 µM	greater than maximum tested dose	109.08%	101.49 % of control	108.93 % of control	–
CC(C)(O)c1ccc2c(c1)/C(=C/CCN1CC[C@](O)(c3ccc(Cl)cc3)C(C)(C)C1)c1cccnc1CO2 [MLN-3897]	0.96 µM	greater than maximum tested dose	122.09%	106.59 % of control	101.50 % of control	–
COc1ccc2cc1Oc1ccc(cc1)C[C@H]1c3c(cc4c(c3Oc3cc5c(cc3OC)CCN(C)[C@@H]5C2)OCO4)CCN1C [Cepharanthine]	–	greater than maximum tested dose	–	–	–	IC50 (HCoV-229E; Human coronavirus 229E, Huh7.5): 0.47 µM
OC(CNCC(O)C1CCc2cc(F)ccc2O1)C1CCc2cc(F)ccc2O1 (centres unmarked) [Nebivolol HCl]	–	greater than maximum tested dose	–	–	–	IC50 (HCoV-229E; Human coronavirus 229E, Huh7.5): 1 µM
